Assay results published in the NIST ThermoML archive (doi:10.1016/j.jct.2015.10.017).

Assay: mn = molality of the nth substance listed, in mol/kg
Conditions: 100 kPa, Liquid, Falling or rolling sphere viscometry

O=P([O-])([O-])O.[K+].[K+] [dipotassium hydrogen phosphate] + O
viscosity [mPa·s]
Conditions | 288.15 K | 293.15 K | 298.15 K | 303.15 K | 308.15 K
m1 = 0.01682 | 1.05 | 0.9382 | 0.8385 | 0.804 | 0.7261
m1 = 0.03476 | 1.058 | 0.9456 | 0.8455 | 0.8103 | 0.7324
m1 = 0.05442 | 1.066 | 0.9538 | 0.8532 | 0.8173 | 0.7394
m1 = 0.06215 | 1.069 | 0.957 | 0.8562 | 0.82 | 0.7421
m1 = 0.08596 | 1.079 | 0.9669 | 0.8655 | 0.8284 | 0.7505
m1 = 0.1633 | 1.112 | 0.9989 | 0.8957 | 0.8556 | 0.7777
m1 = 0.2499 | 1.149 | 1.035 | 0.9296 | 0.8861 | 0.8082
m1 = 0.3088 | 1.174 | 1.059 | 0.9526 | 0.9068 | 0.8289
m1 = 0.4795 | 1.246 | 1.13 | 1.019 | 0.9669 | 0.889
m1 = 0.628 | 1.309 | 1.192 | 1.077 | 1.019 | 0.9412
m1 = 0.7511 | 1.361 | 1.243 | 1.126 | 1.062 | 0.9846
m1 = 0.8468 | 1.401 | 1.283 | 1.163 | 1.096 | 1.018
m1 = 0.9565 | 1.448 | 1.328 | 1.206 | 1.135 | 1.057

O=P([O-])([O-])O.[Na+].[Na+] [disodium hydrogen phosphate] + O
viscosity [mPa·s]
Conditions | 288.15 K | 293.15 K | 298.15 K | 303.15 K | 308.15 K
m1 = 0.01669 | 1.056 | 0.9429 | 0.8421 | 0.806 | 0.7281
m1 = 0.03487 | 1.069 | 0.9556 | 0.8532 | 0.8146 | 0.7367
m1 = 0.05412 | 1.084 | 0.969 | 0.865 | 0.8238 | 0.7459
m1 = 0.06194 | 1.089 | 0.9745 | 0.8698 | 0.8275 | 0.7496
m1 = 0.08565 | 1.107 | 0.9911 | 0.8843 | 0.8387 | 0.7608
m1 = 0.162 | 1.164 | 1.044 | 0.931 | 0.8749 | 0.797
m1 = 0.255 | 1.234 | 1.109 | 0.9879 | 0.9189 | 0.841
m1 = 0.3161 | 1.28 | 1.152 | 1.025 | 0.9479 | 0.87
m1 = 0.4813 | 1.404 | 1.268 | 1.126 | 1.026 | 0.9483
m1 = 0.6261 | 1.513 | 1.369 | 1.215 | 1.095 | 1.017
m1 = 0.7501 | 1.606 | 1.456 | 1.291 | 1.154 | 1.076
m1 = 0.8501 | 1.681 | 1.525 | 1.352 | 1.201 | 1.123
m1 = 0.959 | 1.762 | 1.602 | 1.419 | 1.253 | 1.175
